Experimental data taken from patent US5962463A, “Methods of stimulating non-amyloidogenic processing of the amyloid precursor protein” (Massachusetts Institute Of Technology, priority 1997, dated 1999).
Structures can show the parent of a compound that is named as a salt.

Key:
[1] = biological target: T1, human brain serotonin 5HT1C receptor (Homo sapiens, UniProt P28335); conditions: for effect on receptor-activated APP release in response to dexnorfenfluramine: 5HT1C transfected cell lines, FIG. 3
T1 sequence (P28335 33-458): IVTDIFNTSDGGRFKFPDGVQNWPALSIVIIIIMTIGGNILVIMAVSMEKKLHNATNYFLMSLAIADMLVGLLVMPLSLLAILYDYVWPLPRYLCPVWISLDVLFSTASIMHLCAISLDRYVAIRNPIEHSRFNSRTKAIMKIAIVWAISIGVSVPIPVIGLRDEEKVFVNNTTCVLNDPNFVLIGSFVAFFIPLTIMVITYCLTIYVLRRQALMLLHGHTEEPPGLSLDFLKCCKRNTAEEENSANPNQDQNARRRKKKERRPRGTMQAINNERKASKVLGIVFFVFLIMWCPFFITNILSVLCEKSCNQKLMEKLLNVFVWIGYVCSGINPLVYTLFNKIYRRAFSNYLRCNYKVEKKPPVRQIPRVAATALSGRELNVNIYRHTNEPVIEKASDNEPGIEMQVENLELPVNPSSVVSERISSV

[2] = biological target: human brain serotonin 5HT2 receptor (Homo sapiens, UniProt P28223); conditions: for effect on receptor-activated APP release in response to serotonin: 5HT2 transfected cell lines, insert in FIG. 1C
[3] = tested on: human serotonin-1C surface receptor; test: Phosphatidylinositol turnover in NIH 3T3 cells expressing the 5HT1C receptor; assay type: cell-based; conditions: NIH 3T3 cells expressing 5-HT1C, FIG. 2B
Description: FIG. 2A is a graphic representation of concentration dependent APP^S release by NIH 3T3 cells transfected with and expressing the gene for the human serotonin-1C surface receptor in response to activation by dexnorfenfluramine. FIG. 2B is a graphic representation of phosphatidylinositol turnover in the same cells in response to activation by dexnorfenfluramine.
In this instance, the agent interacts with and stimulates the serotonin surface receptor directly. […] Additional evidence is provided by the observation that turnover of phosphatidylinositol is stimulated in these cells by dexnorfenfluramine (FIG. 2B).

slices of rat brain = conditions: 100 μM, incubated in slices of rat brain; cited from earlier work
APP release = APP release and cell-associated APP in serotonin receptor transfected 3T3 cells (receptor subtype not stated); assay type: cell-based, human
[4] = tested on: nontransfected human 3T3 cells; test: Basal release of APP fragments from wild-type (nontransfected) 3T3 cells; assay type: cell-based; conditions: wild-type cell lines, FIGS. 1A and 1C
Description: Cultured human NIH 3T3 fibroblasts were utilized.
Molecular weight standards were obtained from Amersham.

[5] = taken orally by an individual; cited from earlier work
[6] = stimulation with serotonin, Western blot
[7] = 10 μM serotonin, 5HT2 transfected cells, FIG. 1D

## Cc1nc2sccn2c(=O)c1CCN1CCC(=C(c2ccc(F)cc2)c2ccc(F)cc2)CC1 [ritanserin]
[1]
  effect on receptor-activated APP release in response to dexnorfenfluramine: blocked
[2]
  effect on receptor-activated APP release in response to serotonin: blocked

## C[C@H](N)Cc1cccc(C(F)(F)F)c1 [dexnorfenfluramine, (+) 1-[3-(trifluoromethyl)-phenyl] propan-2-amine hydrochloride]
[3]
  turnover of phosphatidylinositol: stimulated
[1]; 5HT1C transfected cells, normalized to vehicle-treated controls
  increase of basal APP release: 3 fold
Slices of rat brain
  increase in the release of serotonin: 6-7 fold

## CNc1ccc2oc(C[C@H]3O[C@@]4(CC[C@H]3C)O[C@H]([C@H](C)C(=O)c3ccc[nH]3)[C@H](C)C[C@H]4C)nc2c1C(=O)O [A23187]
APP release; calcium ionophore, increased intracellular calcium alone
  ability to mimic the receptor-mediated stimulation of basal APP release: failure

## CN1CCN2c3ccccc3Cc3ccccc3C2C1 (centres unmarked) [mianserin]
[1]
  effect on receptor-activated APP release in response to dexnorfenfluramine: blocked

## NCCc1c[nH]c2ccc(O)cc12 [serotonin]
[4]
  stimulation of basal release of APP fragments: not stimulated
APP release; [6]
  128 kD APP derivative secreted into the culture medium: increase
  abundance of cell-associated 115 kD APP: remained unaffected
  abundance of cell-associated 141 kD APP: decreased
[2]; [7]
  time to half-maximal stimulation of APP release: 30 to 40 min
  time to maximum stimulation of APP release: ≤ 120 min

## CCN[C@@H](C)Cc1cccc(C(F)(F)F)c1 [dexfenfluramine]
[5]
  amounts of dexfenfluramine and its de-ethylated metabolite dexnorfenfluramine appearing in the brain: roughly equal amounts

## O=C(c1ccc(F)cc1)C1CCN(CCn2c(=O)[nH]c3ccccc3c2=O)CC1 [ketanserin]
[1]
  effect on receptor-activated APP release in response to dexnorfenfluramine: blocked
[2]
  effect on receptor-activated APP release in response to serotonin: blocked

## CN[C@@H]1C[C@H]2O[C@@](C)([C@@H]1OC)n1c3ccccc3c3c4c(c5c6ccccc6n2c5c31)C(=O)NC4 [staurosporine]
APP release; serotonin-stimulated transfected cells
  effect on the serotonin effect on APP release: inhibited
